EC50 and AC50 data for 26 compounds are collected here from ChEMBL document CHEMBL1201862, “PubChem BioAssay data set” (2004).

A short description of assay [1]: cytotoxicity toward NIH3T3 fibroblasts, dose response, counter-screen, cell-based, ATP luminescence, mouse fibroblasts (AID 2010).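 Also: cells exposed to compound for about 90 hours before reading.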 Format: functional. A general note: A counterscreen serves to expose hits that act by an unwanted route or on another target.
Assay [2] can be described thus: inhibitors of intracellular T. cruzi replication, confirmation, NIH3T3 host cells, beta-gal luminescence (AID 2044).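 Also: intracellular parasites grown in NIH/3T3 mouse fibroblasts as host cells; luminescent beta-galactosidase reporter signal from transgenic T. cruzi replicating inside host cells; inhibitors lower the luminescence signal.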 Format: functional, cell-based.
In assay [3] the target is Cytochrome P450 3A4 (Homo sapiens, UniProt P08684).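 Also: CYP3A4 tested as one member of a cytochrome P450 panel screen.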
Sequence of Cytochrome P450 3A4 (P08684 whole entry): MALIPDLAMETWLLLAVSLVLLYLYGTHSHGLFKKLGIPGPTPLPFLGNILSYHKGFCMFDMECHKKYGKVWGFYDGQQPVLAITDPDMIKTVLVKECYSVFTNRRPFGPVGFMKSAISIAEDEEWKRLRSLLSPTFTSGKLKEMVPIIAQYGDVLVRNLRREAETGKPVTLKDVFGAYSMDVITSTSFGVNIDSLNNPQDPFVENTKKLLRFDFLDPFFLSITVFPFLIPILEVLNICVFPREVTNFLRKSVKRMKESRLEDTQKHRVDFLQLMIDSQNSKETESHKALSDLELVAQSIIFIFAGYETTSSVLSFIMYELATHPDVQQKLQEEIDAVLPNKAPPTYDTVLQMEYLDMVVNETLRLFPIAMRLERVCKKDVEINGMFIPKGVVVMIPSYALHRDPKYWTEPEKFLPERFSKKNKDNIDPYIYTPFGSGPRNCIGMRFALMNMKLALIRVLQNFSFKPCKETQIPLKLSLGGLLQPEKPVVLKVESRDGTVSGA
Assay [4] concerns the target T1, Cytochrome P450 1A2 (Homo sapiens, UniProt P05177).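 Also: PubChem cytochrome P450 panel assay, CYP1A2 panel member.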
T1 sequence (P05177 whole entry): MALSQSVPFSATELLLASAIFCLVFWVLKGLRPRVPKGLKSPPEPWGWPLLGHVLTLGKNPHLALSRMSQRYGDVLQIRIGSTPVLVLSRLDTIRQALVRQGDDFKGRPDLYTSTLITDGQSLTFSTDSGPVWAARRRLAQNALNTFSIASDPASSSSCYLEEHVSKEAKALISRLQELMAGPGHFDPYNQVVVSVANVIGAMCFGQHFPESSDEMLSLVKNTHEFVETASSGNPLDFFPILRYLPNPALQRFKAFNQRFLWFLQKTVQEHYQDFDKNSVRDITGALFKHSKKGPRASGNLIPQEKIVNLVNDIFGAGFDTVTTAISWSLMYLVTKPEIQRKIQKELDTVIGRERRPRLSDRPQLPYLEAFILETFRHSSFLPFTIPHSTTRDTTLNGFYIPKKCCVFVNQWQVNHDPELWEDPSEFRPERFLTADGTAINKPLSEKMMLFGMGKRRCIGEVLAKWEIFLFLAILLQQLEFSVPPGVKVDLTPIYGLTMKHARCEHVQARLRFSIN

Several values for one entry are separate records, joined by “and”; a condition that tells them apart may be missing. Identical values can stand only once. Activity calls are given as the source filed them.

For the compound `CCCOc1ccc(NC(=O)OC2CCN(C)CC2)cc1`, the EC50 in assay [1] was > 60 µM (not active); in assay [2] it was 0.442 µM (active).

As to `CCOc1cc(/C=N/O)cc(Cl)c1OC`, the AC50 in assay [3] was 31.6 µM (inconclusive). In the case of `C/C(=N\Nc1nc(N2CCCCC2)nc(N2CCOCC2)n1)c1ccccc1O`, the EC50 in assay [1] is 6.37 µM (active); in assay [2], 0.681 µM (active).

On to `COc1cc2c(cc1OC)C(C(=O)N1CCOCC1)C(c1cccs1)N(C)C2=O` (stereo unspecified), for which, in assay [3], the AC50 is 25.1 µM (inconclusive). Take `C=CCn1c(=O)c2c(nc(Br)n2Cc2ccccc2Cl)n(C)c1=O`: the AC50 in assay [4] is 15.8 µM (inconclusive).

With `O=[N+]([O-])c1ccc(S(=O)(=O)NCCS(=O)(=O)N2CCN(c3ccccc3)CC2)cc1`, the EC50 in assay [1] was > 60 µM (not active); in assay [2], 0.247 µM (active).

Turning to `COc1ccc([N+](=O)[O-])cc1N=C(S)NC(NC(=O)Cc1ccc(OC)c(OC)c1)C(Cl)(Cl)Cl` (stereo unspecified), the AC50 in assay [4] was 17.8 µM (inconclusive).

Regarding `Cc1c(C(=O)NCc2ccc3c(c2)OCO3)oc2ccc(S(=O)(=O)N3CCC(C)CC3)cc12`, the half-maximal effective concentration (EC50) in assay [1] was 50.9 µM (active); in assay [2], 1.04 µM (active). As to `CN1CCN(c2ccc(NC(=O)c3ccc4c(c3)nc(O)n4Cc3ccc(F)cc3)cc2)CC1`, the EC50 was > 30 µM (not active) in assay [1] and 0.955 µM (active) in assay [2].

Consider `COc1ccccc1N1CCN(C(CNS(=O)(=O)c2cc(F)ccc2F)c2cccnc2)CC1` (stereo unspecified), for which the values for the EC50 in assay [1] and in assay [2] were > 60 µM (not active) and 0.367 µM (active), respectively. Regarding `COc1ccc(C(=O)N2CCC3(CC2)CCN(c2cccc(-c4ccccc4)c2)CC3)cc1`, the AC50 in assay [4] was 25.1 µM (inconclusive). For the compound `Cc1ccc2cc(C(c3nnnn3C3CCCC3)N(Cc3ccco3)Cc3cccs3)c(O)nc2c1` (stereo unspecified), the EC50 in assay [1] is > 60 µM (not active); in assay [2], 3.2 µM (active). The like results for `CCN1CCN(c2oc(COc3ccc(-c4ccccc4)cc3)nc2C#N)CC1` were, in that order, > 60 µM (not active) and 2.66 µM (active).

Consider `Cc1cc(NC(=O)c2cccs2)n(-c2nc3ccccc3[nH]2)n1`, for which the figures for the EC50 in assay [1] and in assay [2] were 14.2 µM (active) and 1.95 µM (active), respectively. Turning to `COc1ccc2c(c1)c(CC(=O)O)c(C)n2C(=O)c1ccc(Cl)cc1` [INDOMETHACIN], the AC50 in assay [4] is 10 µM (inconclusive) and 39.8 µM (inconclusive). `CCOc1cc(CNc2cccc3ccccc23)cc(Br)c1OCC(=O)NC(C)(C)C`: the EC50 in assay [1] was > 30 µM (not active); in assay [2], 2.31 µM (active). Take `CCCOc1ccc(N2C(=O)CC(N(CCc3ccc(OC)c(OC)c3)C(S)=Nc3ccccc3)C2=O)cc1` (stereo unspecified): the results for the EC50 in assay [1] and in assay [2] were > 30 µM (not active) and 2.1 µM (active), respectively.

As to `c1ccc(C(c2ccccc2)c2noc(CN3CCC(c4ccncc4)CC3)n2)cc1`, the EC50 in assay [1] was > 30 µM (not active); in assay [2], 0.943 µM (active).

Regarding `CC(c1nnnn1C(C)(C)C)N(Cc1cccnc1)Cc1ccccc1Cl` (stereo unspecified), the figures for the EC50 in assay [1] and in assay [2] were > 60 µM (not active) and 0.496 µM (active), respectively. Turning to `CN(C)c1ncc2nc(-c3ccc(F)cc3)c(=O)n(CCc3ccccc3)c2n1`, the AC50 in assay [4] is 2.51 µM (inconclusive). Same read-out and setting: the result for `CCOC(=O)NC(NC(=O)OCC)C(=O)c1ccc(F)cc1` reads 10 µM (inconclusive). Turning to `CC(=O)Nc1sc2c(c1CN1CCN(C)CC1)CCCC2`, the AC50 in assay [4] is 17.8 µM (inconclusive).

As for `COc1ccc(S(=O)(=O)N2CCOC23CCN(S(=O)(=O)c2ccc([N+](=O)[O-])cc2)CC3)cc1`, the figures for the EC50 in assay [1] and in assay [2] were > 30 µM (not active) and 2.03 µM (active), respectively. With `C[C@](N)(CCP(=O)(O)O)C(=O)O`, in assay [4], the AC50 is 39.8 µM (inconclusive). For `Cc1cc(Cn2ccnc2)c(C)c([N+](=O)[O-])c1Cn1ccnc1`, the EC50 in assay [1] is > 60 µM (not active); in assay [2], 2.05 µM (active). Consider `CCOc1ccc(NC(=O)c2ccc(OC)cc2)cc1`, for which, in assay [4], the AC50 was 20 µM (inconclusive).

As usually defined, the EC50 is the midpoint of the concentration-response curve. Usually AC50 stands for the concentration at which the activity in the assay is half-maximal.
